# According to patent US8889883B2, “BODIPY structure fluorescence dye for neural stem cell probe” (National University of Singapore, priority 2010, dated 2014):
# Tested on: E14.5 fetal mouse brain cells
# Assay: Neurosphere assay of FACS-sorted fetal mouse brain cells
# Type: cell-based
# Conditions: CDr3, SSEA-1, Aldefluor, CD133 sorted cells
# Method: Next, we were interested to test whether CDr3 can be used for the isolation of NSC from the heterogeneous populations of cells. According to the protocol described by Bibel et al.^7, we induced differentiation of E14 to generate FABP7-positive radial glial cells. The embryoid bodies generated from E14 in the absence of leukemia inhibitory factor were treated with retinoic acid for 2 days until dissociation into single cell suspension. The cells were stained with CDr3 and the CDr3bright and CDr3dim cells were collected separately by FACS. Each cell population was stained with FABP7 antibody and analyzed by flow cytometry. […] For the NSC isolation from the brain tissue, we incubated the E14.5 fetal mouse brain primary cells with CDr3, and the CDr3^bright and CDr3^dim cells were collected separately by FACS for gene expression analysis by real time RT-PCR and neurosphere assay. The expression levels of FABP7, Hes1, Musashi, Nestin and Pax6 in CDr3^bright cells were more than 3-fold higher than in CDr3^dim cells, while the differences of Hes5, Sox2 and Bmi1 expression levels were less than 2-fold (FIG. 5). […]
# E14.5 fetal mouse brains were trypsinized in 0.25% trypsin with 1 mM EDTA solution (Invitrogen) for 30 mins at 37° C. before neutralization with FBS. […] The number and size of neurospheres generated from each group were measured after 6 days culture. […]
structure (smiles),measurement,value
"Cc1cc(C)n2c1C=C1C=CC(CCC(=O)NCC=O)=[N+]1[B-]2(F)F [Aldefluor, BODIPY-aminoacetaldehyde]",sizes of neurospheres from sorted cells,all similar
